Assay results taken from ChEMBL document CHEMBL1770068, “Pharmacophore-based virtual screening and Bayesian model for the identification of potential human leukotriene A4 hydrolase inhibitors” (Eur J Med Chem, 2011).

target: T1, Leukotriene A-4 hydrolase (Homo sapiens, UniProt P09960)
T1 sequence (P09960 whole entry): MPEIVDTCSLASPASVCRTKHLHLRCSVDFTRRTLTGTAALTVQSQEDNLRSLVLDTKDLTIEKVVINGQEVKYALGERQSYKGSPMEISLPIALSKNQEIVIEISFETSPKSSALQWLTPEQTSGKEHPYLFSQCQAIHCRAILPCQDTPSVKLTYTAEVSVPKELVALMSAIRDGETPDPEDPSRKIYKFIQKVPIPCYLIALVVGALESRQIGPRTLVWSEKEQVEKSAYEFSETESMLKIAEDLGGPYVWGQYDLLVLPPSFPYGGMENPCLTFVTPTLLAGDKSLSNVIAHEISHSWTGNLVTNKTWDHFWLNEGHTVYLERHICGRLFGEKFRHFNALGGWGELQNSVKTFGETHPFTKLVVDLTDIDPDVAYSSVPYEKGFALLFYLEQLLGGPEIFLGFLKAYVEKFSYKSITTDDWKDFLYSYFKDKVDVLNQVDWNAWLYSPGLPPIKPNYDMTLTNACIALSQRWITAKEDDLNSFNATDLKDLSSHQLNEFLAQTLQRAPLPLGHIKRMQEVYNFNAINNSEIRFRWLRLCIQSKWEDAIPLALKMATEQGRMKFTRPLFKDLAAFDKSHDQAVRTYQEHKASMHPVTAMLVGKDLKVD

IC50 | SMILES
0.5 nM | CN(CCCOc1ccc(Oc2ccc(-c3ccccc3)cc2)cc1)CCC(=O)O
5 nM | O=C(O)c1ccc(CN2CC3CCCC2C(Nc2ccc(Oc4ccc(-c5ccccc5)cc4)cc2)C3)cc1 (stereo not given)
9 nM | O=C(O)c1ccc(CN2CC3CCCC2C(Nc2ccc(Oc4nc5ccccc5s4)cc2)C3)cc1 (stereo not given)
300 nM | CC(NC(=O)C(CC(=O)O)Cc1ccccc1)C(=O)O (stereo not given)

SMILES | IC50
O=C(CC(Cc1ccccc1)C(=O)N1CCCCC1C(=O)O)NO (stereo not given) | 1800 nM
